Reference: BigSolDB 2.1

NC(=O)C[C@H](NC(=O)OCc1ccccc1)C(=O)O
solubility (mole fraction)
Settings | 283.15 K | 288.15 K | 293.15 K | 298.15 K | 303.15 K | 308.15 K | 313.15 K | 318.15 K | 323.15 K
in 1,4-dioxane | – | 0.00212 | 0.00241 | 0.00271 | 0.00317 | 0.00358 | 0.00419 | 0.0049 | 0.0057
in 2-butanone | 0.000329 | 0.000433 | 0.000544 | 0.000652 | 0.000745 | 0.00086 | 0.001 | 0.00112 | 0.00128
in acetone | 0.000747 | 0.000777 | 0.000832 | 0.000971 | 0.00112 | 0.00136 | 0.00161 | 0.00194 | 0.00262
in acetonitrile | 7.48e-05 | 0.000149 | 0.000221 | 0.000305 | 0.000395 | 0.000498 | 0.000599 | 0.00069 | 0.000775
in ethanol | 0.000263 | 0.000463 | 0.000753 | 0.00114 | 0.00161 | 0.00213 | 0.00265 | 0.00311 | 0.00347
in isobutanol | 4.91e-05 | 6.83e-05 | 9.5e-05 | 0.000157 | 0.000269 | 0.000403 | 0.000581 | 0.000831 | 0.00107
in isopropanol | 8.58e-05 | 0.000238 | 0.000431 | 0.000625 | 0.000834 | 0.00105 | 0.00127 | 0.00153 | 0.00177
in methanol | 0.00174 | 0.00188 | 0.00233 | 0.00274 | 0.00344 | 0.00413 | 0.00524 | 0.00647 | 0.00801
in n-butanol | 0.00023 | 0.000293 | 0.000361 | 0.000476 | 0.000644 | 0.000846 | 0.0011 | 0.00135 | 0.00171
in n-pentanol | 0.000182 | 0.000221 | 0.00027 | 0.000325 | 0.000415 | 0.000535 | 0.000652 | 0.000829 | 0.00104
in n-propanol | 0.000285 | 0.000339 | 0.000439 | 0.000576 | 0.000737 | 0.000887 | 0.00116 | 0.00142 | 0.00175
in water | 2.14e-05 | 2.75e-05 | 4.02e-05 | 5.55e-05 | 7.33e-05 | 9.44e-05 | 0.000121 | 0.000152 | 0.000198
